Reference: patent publication US11028051B2, “Tetrahydroquinoline-based bromodomain inhibitors” (St. Jude Children's Research Hospital, priority 2016, dated 2021)
Where two headings read alike, the source gives them in different places.

What was measured:
BRD2-BD1 [1] = molecular target: T1, BRD2-BD1 (Homo sapiens (Human), UniProt P25440); assay: competitive TR-FRET assay, BET-BD with acetylated peptide ligand; type: binding
Protocol: (§1) Inhibitor potency was determined using a competitive TR-FRET assay as detailed herein, measuring interaction of the respective BET-BD with an acetylated peptide ligand (Table 2).
Target sequence in this assay (P25440 74-180): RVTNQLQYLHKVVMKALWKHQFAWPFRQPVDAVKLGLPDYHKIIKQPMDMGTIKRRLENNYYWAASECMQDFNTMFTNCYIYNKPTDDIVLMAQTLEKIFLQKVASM

BRD2-BD2 = BRD2-BD2 (Homo sapiens (Human), UniProt P25440); assay: as above; type: binding; settings: for 2.1/2.2: ratio of BRD2-BD1 EC50 to BRD2-BD2 EC50 (selectivity)
Protocol: as §1

BRD3-BD1 = BRD3-BD1 (Homo sapiens (Human), UniProt Q15059); assay: as above; type: binding
Protocol: as §1

BRD4-BD1 = BRD4-BD1 (Homo sapiens (Human), UniProt O60885); assay: as above; type: binding; settings: for EC50: BRD4-BD1, Table 11 additional modifications, read-out: 4.1 EC50
Protocol: as §1

BRD4-BD2 = BRD4-BD2 (Homo sapiens (Human), UniProt O60885); assay: as above; type: binding; settings: for EC50: BRD4-BD2, Table 11 additional modifications, read-out: 4.2 EC50
Protocol: as §1

BRDT = BRDT (Homo sapiens, UniProt Q58F21); assay: as above; type: binding; settings: read-out: BRDT EC50
Protocol: as §1

HDMB03 cells = assay: cell viability, CellTiter-Glo; type: cell-based, human; settings: Homo sapiens, HD-MB03, Table 5; read-out: EC50 (μM) HDMB03
Protocol: Human G3 medulloblastoma or mouse SHH medulloblastoma cells were grown as neurospheres in supplemented neurobasal medium, as previously described (Kawauchi et al., 2012.)
After 7 days of treatment, an equal volume of CellTiter-Glo reagent (G7572, Promega) was added and the luminescence signal was measured using an automated Envision plate reader (Perkin-Elmer). Luminescence data were normalized by log10 transformation prior to calculating the percent inhibition using the following equation:
100*(negative control mean −compound value)/(negative control mean −positive control mean).
High-throughput assay data were analyzed using Robust Interpretation of Screening Experiments (RISE) application written in Pipeline Pilot (Accelrys, v. 8.5) and the R program (R Development Core Team).
Dose-response curves were calculated by regressing the median percent inhibition obtained over triplicate experiments to log 10-transformed concentrations. Non-linear regression was then performed using the R drc package with the four parameter log-logistic function (LL2.4) (Ritz and Streibig, 2009). Curves were fit under three different constraints: (1) all parameters free, (2) high response fixed to 100, (3) low response fixed to 0; and the best fit from these three nested models was selected using the anova.drc function.

[2] = tested on: c-Myc expression in HDMB03 cells; assay: c-Myc expression inhibition, high content microscopy (HCM); type: cell-based, human; settings: Homo sapiens
BRD2-BD1 [3] = molecular target: T1, BRD2-BD1; assay: isothermal titration calorimetry analysis of binding; settings: ITC, BRD2-BD1
Protocol: b. Isothermal Titration Calorimetry Analysis of Binding to Brd2-BD1 and Brd2-BD2
Binding of compounds to BRD2 was monitored using an ITC200 (Microcal, Piscataway, N.J.). Either Brd2.1 (74-194) or Brd2.2 (348-455) was dialyzed overnight into a solution containing 50 mM HEPES, pH 7.0 and 150 mM NaCl at 15° C. Enzyme concentrations were determined after dialysis by absorbance at 280 nm using a molar extinction coefficient (ε280) of 25,565 M^−1 cm^−1 (2.1) or 16,055 M^−1 cm^−1 (2.2). Enzyme was diluted in dialysis buffer and 39.6 μL was loaded into the syringe. Compounds were dissolved in the same dialysis buffer and loaded in the cell to a volume of 204 μL. Injections were carried out by serial injections of enzyme; first, 1 injection of 1 μL, followed by 19 incremental injections of 2 μL, at 120 second intervals. Data from the first injection was excluded, due to pre-equilibration mixing between the contents of cell and syringe at the syringe tip. Peak areas were integrated, normalized, and then fitted by non-linear regression using the independent sites model in Origin™ (version 2.3.6, Microcal, Piscataway, N.J.).
Target sequence in this assay (P25440 74-194): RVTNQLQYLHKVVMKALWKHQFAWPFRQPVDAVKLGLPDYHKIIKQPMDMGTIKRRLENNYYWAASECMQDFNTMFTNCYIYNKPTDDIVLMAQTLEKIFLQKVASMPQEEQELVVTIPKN

[4] = BRD2-BD1, Table 11 additional modifications, read-out: 2.1 EC50
[5] = BRD2-BD2, Table 11 additional modifications, read-out: 2.2 EC50
[6] = BRD3-BD1, Table 11 additional modifications, read-out: 3.1 EC50
[7] = BRDT, Table 11 additional modifications
[8] = Table 2, inhibitor potency by TR-FRET

Chain of BRD2-BD2 (P25440 344-453): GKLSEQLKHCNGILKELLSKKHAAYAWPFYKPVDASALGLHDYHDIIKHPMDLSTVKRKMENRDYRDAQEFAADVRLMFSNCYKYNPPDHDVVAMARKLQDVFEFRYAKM
Chain of BRD3-BD1 (Q15059 34-140): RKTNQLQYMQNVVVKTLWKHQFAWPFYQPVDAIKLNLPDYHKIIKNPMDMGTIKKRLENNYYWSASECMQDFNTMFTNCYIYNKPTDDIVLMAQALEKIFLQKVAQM

Compound | EC50 (BRD2-BD1 [1]; [4]) [µM] | EC50 (BRD2-BD2; [5]) [µM] | 2.1/2.2 (BRD2-BD2) | EC50 (BRD3-BD1; [6]) [µM] | EC50 (BRD4-BD1) [µM] | EC50 (BRD4-BD2) [µM] | EC50 (BRDT; [7]) [µM] | EC50 (BRD2-BD1 [1]; Table 4, read-out: EC50 (μM) BRD2(1)) [µM] | [2(1)/2(2)] (BRD2-BD2; Table 4, ratio of EC50) | EC50 (BRD2-BD2; Table 4, read-out: EC50 (μM) BRD2(2)) [µM] | EC50 (BRD3-BD1; Table 4, read-out: BRD3(1)) [µM] | EC50 (BRDT; Table 4) [µM] | EC50 ([2]; HD-MB03, Table 5, read-out: EC50 (μM) Myc-inhibition) [µM] | IC50 (BRD4-BD1; [8]) [µM] | IC50 (BRD4-BD2; [8]) [µM] | ΔG (BRD2-BD1 [3]) [kcal/mol] | −TΔS (BRD2-BD1 [3]) [kcal/mol] | EC50 ([2]; HD-MB03, HDMB03 cells, read-out: c-Myc expression EC50) [µM] | EC50 (HDMB03 cells) [µM]
COC(=O)c1cccc(N[C@@H]2C[C@H](C)N(C(C)=O)c3ccc(-c4cccc(NC(C)=O)c4)cc32)c1 [compound 7] | 81 | 0.08 | >1000 | 1.6 | 4.8 | 81 | 10 |  |  |  |  |  |  |  |  |  |  |  | 
CC(=O)Nc1cccc(-c2ccc3c(c2)[C@H](N)C[C@H](C)N3C(C)=O)c1 [compound 9] | 12 | 14 | 0.86 | 10 | 47 | 15 | 10 |  |  |  |  |  |  |  |  |  |  |  | 
COC(=O)c1ccccc1N[C@@H]1C[C@H](C)N(C(C)=O)c2ccc(-c3cccc(NC(C)=O)c3)cc21 [compound 15] | 7 | 0.11 | 64 | 10 | 7 | 0.1 | 0.7 |  |  |  |  |  |  |  |  |  |  |  | 
CC(=O)Nc1cccc(-c2ccc3c(c2)[C@H](Nc2cncnc2)C[C@H](C)N3C(C)=O)c1 [compound 16] | 9.8 | 0.98 | 10 | 6.4 | 13 | 1.9 | 17 |  |  |  |  |  |  |  |  |  |  |  | 
CC(=O)Nc1cccc(-c2ccc3c(c2)[C@H](Nc2cccc(OC(F)(F)F)c2)C[C@H](C)N3C(C)=O)c1 [compound 22] | 26 | 0.79 | 33 | 10 | 27 | 1.9 | 10 |  |  |  |  |  |  |  |  |  |  |  | 
CC(=O)Nc1cccc(-c2ccc3c(c2)[C@H](NC2CCCC2)C[C@H](C)N3C(C)=O)c1 [compound 38] | 5.5 | 2.4 | 2.3 | 3.7 | 6.8 | 2.6 | 11 |  |  |  |  |  |  |  |  |  |  |  | 
COc1cc(F)ccc1N[C@@H]1C[C@H](C)N(C(C)=O)c2ccc(-c3cccc(NC(C)=O)c3)cc21 [compound 42] |  |  |  |  |  |  |  | 13 | >100 | 0.14 | > 14 | > 14 | > 10 |  |  |  |  |  | 0.76
CC(=O)N1c2ccc(-c3ccco3)cc2[C@H](NC(=O)OC(C)C)C[C@@H]1C [compound 50] |  |  |  |  |  |  |  |  |  |  |  |  |  | 4.6 | 2.6 | -7.47 | -0.20 | 0.33 | 
CC(=O)N1c2ccc(-c3coc4ccccc34)cc2[C@H](NC(=O)OC(C)C)C[C@@H]1C [compound 90] | 11 | 3.5 | 0.84 | 3.4 | 8.7 | 56 | 14 |  |  |  |  |  |  |  |  |  |  |  | 
CC(=O)Nc1cccc(-c2ccc3c(c2)[C@H](Nc2ccc(OC(F)(F)F)cc2)C[C@H](C)N3C(C)=O)c1 [compound 132] | 20 | 0.37 | 16 | 10 | 17 | 0.54 | 10 |  |  |  |  |  |  |  |  |  |  |  | 
CC(=O)N1c2ccc(-c3cccc(NC(=O)OC(C)(C)C)c3)cc2[C@H](Nc2ccc(Cl)cc2)C[C@@H]1C [compound 134] | 21 | 0.59 | 36 | 10 | 21 | 0.9 | 10 |  |  |  |  |  |  |  |  |  |  |  | 

Further compounds by falling EC50 (BRD2-BD1 [1]; [4]), results first:

EC50 (BRD2-BD1 [1]; [4]) [µM] | EC50 (BRD2-BD2; [5]) [µM] | 2.1/2.2 (BRD2-BD2) | EC50 (BRD3-BD1; [6]) [µM] | EC50 (BRD4-BD1) [µM] | EC50 (BRD4-BD2) [µM] | EC50 (BRDT; [7]) [µM] | EC50 (BRD2-BD1 [1]; Table 4, read-out: EC50 (μM) BRD2(1)) [µM] | [2(1)/2(2)] (BRD2-BD2; Table 4, ratio of EC50) | EC50 (BRD2-BD2; Table 4, read-out: EC50 (μM) BRD2(2)) [µM] | EC50 (BRD3-BD1; Table 4, read-out: BRD3(1)) [µM] | EC50 (BRDT; Table 4) [µM] | EC50 ([2]; HD-MB03, Table 5, read-out: EC50 (μM) Myc-inhibition) [µM] | IC50 (BRD4-BD1; [8]) [µM] | IC50 (BRD4-BD2; [8]) [µM] | ΔG (BRD2-BD1 [3]) [kcal/mol] | −TΔS (BRD2-BD1 [3]) [kcal/mol] | EC50 ([2]; HD-MB03, HDMB03 cells, read-out: c-Myc expression EC50) [µM] | Compound | EC50 (HDMB03 cells) [µM]
3.6 | 0.11 | 10 | 2.1 | 5.1 | 0.21 | 1.6 |  |  |  |  |  |  |  |  |  |  |  | CC(=O)Nc1cccc(-c2ccc3c(c2)[C@H](Nc2ccc(N(C)C)cc2)C[C@H](C)N3C(C)=O)c1 [compound 118] | 
3.2 | 0.2 | 16 | 1.6 | 3.4 | 51 | 4.3 |  |  |  |  |  |  |  |  |  |  |  | CC(=O)Nc1cccc(-c2ccc3c(c2)[C@H](Nc2ccc(N(C)C(C)=O)cc2)C[C@H](C)N3C(C)=O)c1 [compound 11] | 
3.2 | 3 | 1.1 | 1.4 | 2.4 | 5.4 | 7 |  |  |  |  |  |  |  |  |  |  |  | CC(=O)Nc1cccc(-c2ccc3c(c2)[C@H](NC2CCOCC2)C[C@H](C)N3C(C)=O)c1 [compound 36] | 
2.4 | 0.62 | 3.9 | 1.2 | 1.5 | 0.54 | 2.8 |  |  |  |  |  |  |  |  |  |  |  | CC(=O)Nc1cccc(-c2ccc3c(c2)[C@H](NC2CCCCCC2)C[C@H](C)N3C(C)=O)c1 [compound 37] | 
2.3 | 0.1 | 23 | 0.71 | 1.5 | 0.32 | 2.1 |  |  |  |  |  |  |  |  |  |  |  | CNCc1ccc(N[C@@H]2C[C@H](C)N(C(C)=O)c3ccc(-c4cccc(NC(C)=O)c4)cc32)cc1 [compound 23] | 
2.3 | 0.11 | 17 | 1.2 | 2.9 | 0.06 | 4.1 |  |  |  |  |  |  |  |  |  |  |  | CC(=O)Nc1cccc(-c2ccc3c(c2)[C@H](Nc2ccc([N+](=O)[O-])cc2)C[C@H](C)N3C(C)=O)c1 [compound 127] | 
1.9 | 0.11 | 4.8 | 1.5 | 2.3 | 0.08 | 2.6 |  |  |  |  |  |  |  |  |  |  |  | COc1ccc(N[C@@H]2C[C@H](C)N(C(C)=O)c3ccc(-c4cccc(NC(C)=O)c4)cc32)cc1 [compound 18] | 
1.8 | 0.09 | 20 | 1.19 | 2 | 0.06 | 2.6 |  |  |  |  |  |  |  |  |  |  |  | CC(=O)Nc1cccc(-c2ccc3c(c2)[C@H](Nc2ccc4c(c2)OCO4)C[C@H](C)N3C(C)=O)c1 [compound 14] | 
1.7 | 1.4 | 5.1 | 0.41 | 1.3 | 1.3 | 3 |  |  |  |  |  |  |  |  |  |  |  | CC(=O)N1c2ccc(-c3cc4ccccc4[nH]3)cc2[C@H](NC(=O)OC(C)C)C[C@@H]1C [compound 92] | 
1.3 | 1.1 | 0.032 | 1.1 | 0.86 | 37 | 4.9 |  |  |  |  |  |  |  |  |  |  |  | CC(=O)N1c2ccc(-c3c[nH]c4ccccc34)cc2[C@H](NC(=O)OC(C)C)C[C@@H]1C [compound 91] | 
0.93 | 0.03 | 31 | 0.59 | 1.5 | 0.04 | 1.8 |  |  |  |  |  |  |  |  |  |  |  | CC(=O)Nc1cccc(-c2ccc3c(c2)[C@H](Nc2ccc4c(c2)COC4=O)C[C@H](C)N3C(C)=O)c1 [compound 12] | 
0.93 | 0.03 | 31 | 0.59 | 1.5 | 0.04 | 1.8 |  |  |  |  |  |  |  |  |  |  |  | COc1cccc(N[C@@H]2C[C@H](C)N(C(C)=O)c3ccc(-c4cccc(NC(C)=O)c4)cc32)c1 [compound 21] | 
